We go through one molecule from patent US11351185B2, “Use of isovalerylspiramycins as anti-cancer agents to inhibit metastasis” (priority 2020, dated 2022).

The structures appear in SMILES notation. Entries after “also recorded” stand apart in the source; their conditions may differ.

Series [1] has as its target T1, SELH (Sec44→Cys44) synthesized in bacteria (Homo sapiens, UniProt Q8IZQ5, U44C).
T1 construct: made in house
Description: Surface plasmon resonance (SPR) assay, SELH. Format: binding. The conditions noted are these: 25° C. From the text: Next, the inventors used a thermo-stability assay to confirm SELH was targeted by ISP I in LN229 and 786-O cell lines. The principle of the assay is based on altered protein thermal stabilization/destabilization due to ligand binding in living cells. […] (FIG. 5B and FIG. 6A). To verify further the specificity of ISP I's targeting of SELH, the inventors designed a surface plasmon resonance assay to assess the interaction of ISP I with SELH synthesized in bacteria.
The affinities constant (KD) and kinetics (ka and kd) of ISP I binding to SELH (Sec44→Cys44) were assayed using Biacore 8K (GE Healthcare, Sweden), all at 25° C. […] Coupling conditions were determined by protein isoelectric points. […]
To determine the binding affinity between ISP I and SELH (Sec44→Cys44), a series of ISP I dilutions was analyzed by single-cycle kinetics. […] The ISP I at various gradient concentrations and one zero concentration (running buffer) flowed over the immobilized SELH, with 120 s for binding, followed by disassociation for 120 s, and the obtained response units (RUs) were recorded. The RU values were collected, and the binding affinity data were calculated by kinetic models (1:1 interaction) within Biacore 8K Evaluation Software. The equilibrium dissociation constant (KD) was calculated to evaluate the ability of ISP I to interact with SELH.
(SPR reads the build-up and loss of mass on a sensor chip optically.)

A short description of series [2]: Tolerability in xenograft mouse models (bodyweight, histopathology, clinical chemistry). Format: in vivo, mice.
The next series has as its system 786-O and RCC4 cells. Description: Annexin V apoptosis flow cytometry, RCC cells. The series is classed as cell-based. On the procedure: To confirm the cytotoxic effect observed in the glioblastoma cell lines, the inventors assessed ISP I's effect on renal cell carcinoma (RCC) cell lines (ACHN, UM-RC-2, RCC4 and 786-0). Cell viability was assessed similarly via CKK8 analysis. […] (FIG. 4C, D).
Cells (2×10^5) were plated in 6-well plates and treated with different concentrations of ISP I. Then the cells were harvested and washed three times with PBS. Cells were resuspended in 100 μl binding buffer and were incubated with 5 μl APC-conjugated Annexin V working solution, a product of BD bioscience (Franklin Lakes, N.J. USA), and 1 μl propidium iodide (PI), a product of Invitrogen, for 15 min at room temperature with protection from light. Data acquisition and quantification were processed with BD LSRFortessa flow cytometer, using FlowJo software (Ashland, Oreg. USA).
On the technique in general: Flow cytometry measures light scatter and fluorescence of single cells or particles in a stream.

In the next series the test system is POL1 occupancy on rDNA. In words: Chromatin immunoprecipitation (CHIP) assay. The series is classed as cell-based. The note with it: LN229 cells. On the procedure: SELH is localized in the nucleolus, which is a sensor of oxidative stress. Yang et al., Nature communications 7: 13599 (2016); Novoselov et al., J. Biol. Chem. 282: 11960 (2007). […] JNK2 activation by oxidative stress inactivated RNA polymerase I (POL1) transcription factor TIF1A in the nucleoli to down-regulate rRNA synthesis. Mayer et al., Genes Dev. 19: 933 (2005). To investigate whether the ribosomal biogenesis was disrupted by ISP I, pre-rRNA transcription was evaluated using real-time RT-PCR analysis in LN229 cells. […] To examine the mechanisms by which ISP I disrupts POL1 transcription, the inventors initially evaluated JNK2 activity and the overall state of the transcription machinery in ISP I-treated LN229 cells.
ChIP assays were performed using a SimpleCHIP Enzymatic Chromatin IP Kit (Magnetic beads) following the manufacturer's instructions (Cell Signaling Technology; catalog 9003). Cross-linked protein-DNA complexes were precipitated by incubating with rabbit anti-POL1A (CST; 24799s) or rabbit IgG (negative control) overnight and then with magnetic beads for 2 hours. Purified DNA fragments, […], were analyzed quantitatively by real-time PCR with primers against the rDNA promoter and gene body, following the standard-curve method. The standard curves were created by serial dilution of 2% input chromatin DNA. […]

Series [3] deals with SELH-deficient LN229 cells. In words: CCK8 assay in SELH-deficient (CRISPR/CAS9) LN229 cells. The note with it: LN229 SELH knock out. The series is classed as cell-based. From the text:
SELH knockout LN229 cell lines and B16 were generated using the CRISPR/Cas9 technique described by Shalem et al., Science 343: 84 (2014). The gDNA for targeting SELH was designed as follows: Oligo 1, 5′-[…]-3′; Oligo 2, 5′-[…]-3′; the gDNA for targeting mouse SELH was designed as follows: Oligo 1, 5′-[…]-3′; Oligo 2, 5′-[…]-3′, and subcloned into Cas9 carrying vector (pX330). The two resultant plasmids and puromycin-expressing vector (pPGK-puro) were co-transfected at a ratio of 1:1:1 into LN229 or B16 cells using Lipofectamine 2000 (Invitrogen). Twenty-four hours later, the transfected cells were subjected to puromycin (Sigma) at 1 μg/mL for 7 days. One week after selection, the surviving clones were expanded, followed by extraction of total protein for standard western blotting analysis.
Cell viability was measured by Cell Counting Kit-8 (CCK-8, Dojindo Molecular Technologies, Tokyo, Japan). Cells were seeded in 96-well plates at a density of 3×10^3 cells/well and cultured for 24 hours before treatment with ISP I at different concentration. […] The absorbance in each well at a wavelength of OD450 was detected by the Synergy H1 microplate reader, a product of BioTek (Winooski, Vt. USA).

Setting [4] is: LN229, 786-O and IOMM xenograft mouse models.

T1 sequence (Q8IZQ5 with tags, fused parts or gaps U44C): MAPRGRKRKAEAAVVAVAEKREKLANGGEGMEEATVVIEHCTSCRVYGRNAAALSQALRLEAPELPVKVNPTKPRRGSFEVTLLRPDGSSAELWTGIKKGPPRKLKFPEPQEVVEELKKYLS

In the case of `COC1C(O)CC(=O)OC(C)CC=CC=CC(OC2CCC(N(C)C)C(C)O2)C(C)CC(CC=O)C1OC1OC(C)C(OC2CC(C)(O)C(OC(=O)CC(C)C)C(C)O2)C(N(C)C)C1O` (stereo not shown) [ISP I, 4″-isolvalerylspiramycin I], in series [1], the “binding to SELH (SPR)” value is “tightly binds to SELH”. For the same molecule, in series [2] (24 days after treatment), the “histopathology of major organs and standard clinical chemistry” value was “no hematologic, renal, pancreatic or liver toxicities”. In series [2] (setting [4]), the bodyweight during treatment entry is recorded as “bodyweight maintenance; also recorded: animals maintained their bodyweight” and the tolerability of treatment entry is “well-tolerated”. Further, in the series on 786-O and RCC4 cells, the “apoptosis (Annexin V stain)” value is “induced a dose-dependent apoptosis”. For the same molecule, in the series with POL1 occupancy on rDNA, the “POL1 recruitment / occupancy on rDNA (CHIP)” value is listed as “reduces the occupancy of POL1 on rNDA; also recorded: significantly reduced POL1 recruitment to the promoter coding regions of rDNA”. The “sensitivity of SELH-deficient cells vs wild type (CCK8)” value in series [3] was “resistance to ISP I; also recorded: SELH-deficient cells were resistant to ISP I treatment”.
